Test results as given in EP0433759A1, “4-Substituted alkyl carbapenem antibiotics” (Bristol-Myers Squibb Company, priority 1989, dated 1991).
In brackets after ≈: the same amount, converted by molar mass. Read-outs that look alike come from different tables or passages of the source.

Tests used:
[1] = Chemical stability in aqueous solution (half-life); assay type: physicochemical; conditions: 37°C, 10^-4 M, pH 7.4, aqueous solution; read-out: Half-life (T 1/2) (converted)
Protocol: These values were determined by the method of Woodward et al, J. Am. Chem. Soc., 102, 2042 (1980)

[2] = tested on: Escherichia coli, A15119; test: In vitro antibacterial activity (MIC), serial 2-fold dilution; assay type: cell-based; conditions: read-out: Antibacterial Activity MIC E. coli
Protocol: (§1) In vitro antibacterial activity was determined by serial 2-fold dilution of the compound in Mueller-Hinton agar and inoculation of the agar surface or broth with an appropriately diluted 18-24 h broth culture.

[3] = tested on: Pseudomonas aeruginosa, A9843; test: as above; assay type: cell-based; conditions: read-out: Antibacterial Activity MIC P. aer.
Protocol: as §1

[4] = tested on: Streptococcus pneumoniae, A9585; test: as above; assay type: cell-based; conditions: read-out: Antibacterial Activity MIC S. pn.
Protocol: as §1

[5] = Escherichia coli A15119, Mueller-Hinton, 37°C, 17 h
[6] = Pseudomonas aeruginosa A9843, Mueller-Hinton, 37°C, 17 h
[7] = Streptococcus pneumoniae A9585, Mueller-Hinton, 37°C, 17 h

Row | SMILES | half-life at 100 µM [1] | MIC [2, 5] | MIC [3, 6] | MIC [4, 7] | MIC ([2]; Escherichia coli, A15119, 17 h) | MIC ([3]; Pseudomonas aeruginosa, A9843, 17 h) | MIC ([4]; Streptococcus pneumoniae, A9585, 17 h)
1 | C[C@@H](O)[C@H]1C(=O)N2C(C(=O)O)=C(SCc3ccccn3)[C@H](CCN)[C@H]12 [Example 3, (4R,5S,6S)-4-(2"-Aminoethyl)-6-[(1'R)-1'-hydroxyethyl]-3-[(pyridin-2-yl)methylthio]-7-oxo-1-azabicyclo-[3.2.0]-hept-2-ene-2-carboxylic acid] | 3.2 h | 0.016 µg/mL (≈ 0.044 µM) | 2 µg/mL (≈ 5.5 µM) | 0.13 µg/mL (≈ 0.358 µM) |  |  | 
2 | C[C@@H](O)[C@H]1C(=O)N2C(C(=O)O)=C(SCCC#N)[C@H](CCCCNC=N)[C@H]12 [Example 19, (4R,5S,6S)-3-[(2-Cyanoethyl)thio]-4-[4"-(N-formimidoyl)-amino-butyl]-6-[(1'R)-1'-hydroxyethyl]-7-oxo-1 - azabicyclo-[3.2.0]hept-2-ene-2-carboxylic acid] | 117 h | 0.004 µg/mL (≈ 0.0105 µM) | 1 µg/mL (≈ 2.63 µM) | 0.06 µg/mL (≈ 0.158 µM) |  |  | 
3 | C[C@@H](O)[C@H]1C(=O)N2C(C(=O)O)=C(SCc3cccnc3)[C@H](CCN)[C@H]12 [Example 24, (4R,5S,6S)-4-(2"-Aminoethyl)-6-[(1'R)-1'-hydroxyethyl]-3-[(pyridin-3-yl)methyithio]-7-oxo-1-azabicyclo[3.2.0]-hept-2-ene-2-carboxylic acid] | 3.5 h | 0.016 µg/mL (≈ 0.044 µM) | 1 µg/mL (≈ 2.75 µM) | 0.13 µg/mL (≈ 0.358 µM) |  |  | 
4 | C[C@@H](O)[C@H]1C(=O)N2C(C(=O)O)=C(SCCO)[C@H](CCCNC=N)[C@H]12 [Example 32, (4R,5S,6S)-4-[3"-[N-Formimidoyl)aminopropyl]-6-[(1'R)-1'-hydroxyethyl]-3-[(2-hydroxyethyl)thio]-7-oxo-1-azabicyclo [3.2.0]hept-2-ene-2-carboxylic acid] | 76 h | 0.004 µg/mL (≈ 0.0112 µM) | 0.25 µg/mL (≈ 0.699 µM) | 0.25 µg/mL (≈ 0.699 µM) |  |  | 
5 | C[C@@H](O)[C@H]1C(=O)N2C(C(=O)O)=C(SCCC#N)[C@H](CCN)[C@H]12 [Example 36, (4R,5S,6S)-4-(2"-Aminoethyl)-3-[(2-cyanoethyl)thio]-6-[(1'R)-1'-hydroxyethyl]-7-oxo-1-azabicyclo[3.2.0]hept-2-ene-2-carboxylic acid] | 3.8 h | 0.008 µg/mL (≈ 0.0246 µM) | 0.25 µg/mL (≈ 0.768 µM) | 0.13 µg/mL (≈ 0.4 µM) |  |  | 
6 | C[C@@H](O)[C@H]1C(=O)N2C(C(=O)O)=C(SCc3csnn3)[C@H](CCNC(=N)N)[C@H]12 [Example 40, (4R,5S.6S)-4-(2"-Guanidinoethyl)-6-[(1'R)-1'-hydroxyethyl]-3-[(1,2.3-thiadiazol-4-yl)methyithio]-7-oxo-1-azabicyclo-[3.2.0]hept-2-ene-2-carboxylic acid] | 32.5 h | 0.008 µg/mL (≈ 0.0194 µM) | 1 µg/mL (≈ 2.42 µM) | 0.06 µg/mL (≈ 0.145 µM) |  |  | 
7 | C[C@@H](O)[C@H]1C(=O)N2C(C(=O)O)=C(SCCC#N)[C@H](CCCN)[C@H]12 [Example 41, (4R-5S,6S)-4-(3"-Aminopropyl)-3-[(2-cyanoethy!)thio]-6-[(1'R)-1'-hydroxyethyl]-7-oxo-1-azabicyclo[3.2.0]hept-2-ene-2-carboxylic acid] | 70 h | 0.008 µg/mL (≈ 0.0236 µM) | 0.5 µg/mL (≈ 1.47 µM) | 0.25 µg/mL (≈ 0.737 µM) |  |  | 
8 | C[C@@H](O)[C@H]1C(=O)N2C(C(=O)O)=C(SCc3ccncc3)[C@H](CCCN)[C@H]12 [Example 44] | 89 h | 0.03 µg/mL (≈ 0.0795 µM) | 8 µg/mL (≈ 21.2 µM) | 0.03 µg/mL (≈ 0.0795 µM) |  |  | 
9 | C[C@@H](O)[C@H]1C(=O)N2C(C(=O)O)=C(SCCCC#N)[C@H](CCN)[C@H]12 [Example 47, (4R,5S,6S)-4-(2"-Aminoethyl)-3-[(3-cyanopropyl)thio]-6-[(1'R)-l'-hydroxyethyl]-7-oxo-1-azabicyclo[3.2.0]hept-2-ene-2-carboxylic acid] | 2.5 h | 0.03 µg/mL (≈ 0.0884 µM) | 1 µg/mL (≈ 2.95 µM) | 0.5 µg/mL (≈ 1.47 µM) |  |  | 
10 | C[C@@H](O)[C@H]1C(=O)N2C(C(=O)O)=C(SCCN=CN)C[C@H]12 [Imipenem, imipenem, reference compound] |  |  |  |  | 0.03 µg/mL (≈ 0.1 µM) | 2 µg/mL (≈ 6.68 µM) | 0.002 µg/mL (≈ 0.00668 µM)

Continued, in another order:

Row | half-life at 100 µM [1] | MIC [2, 5] | MIC [3, 6] | MIC [4, 7] | SMILES | MIC ([2]; Escherichia coli, A15119, 17 h) | MIC ([3]; Pseudomonas aeruginosa, A9843, 17 h) | MIC ([4]; Streptococcus pneumoniae, A9585, 17 h)
11 | 33.5 h | 0.03 µg/mL (≈ 0.0759 µM) | 63 µg/mL (≈ 159 µM) | 0.008 µg/mL (≈ 0.0202 µM) | C[C@@H](O)[C@H]1C(=O)N2C(C(=O)O)=C(SCCC#N)[C@H](CCN3CCOCC3)[C@H]12 [Example 49, (4R,5S,6S)-3-[(2-Cyanoethyl)thio]-6-[(1'R)-1'-hydroxyethyl]--4-[2"-(N-morpholino)ethyl]-7-oxo-1-azabicyclo-[3.2.0]hept-2-ene-2-carboxylic acid] |  |  | 
12 | 18 h | 0.016 µg/mL (≈ 0.0422 µM) | 1 µg/mL (≈ 2.64 µM) | 0.008 µg/mL (≈ 0.0211 µM) | C[C@@H](O)[C@H]1C(=O)N2C(C(=O)O)=C(SCCC#N)[C@H](CCN3CCCC3)[C@H]12 [Example 63, (4R,5S,6S)-3-[(2-cyanoethyl)thio]-6-[(1'R)-1'-hydroxyethyl]-4-[2"-(1-pyrrolidinyl)-ethyl]-7-oxo-1-azabicyclo[3.2.0]hept-2-ene-2-carboxylic acid] |  |  | 
13 | 37 h | 0.008 µg/mL (≈ 0.0218 µM) | 0.25 µg/mL (≈ 0.68 µM) | 0.03 µg/mL (≈ 0.0816 µM) | C[C@@H](O)[C@H]1C(=O)N2C(C(=O)O)=C(SCCC#N)[C@H](CCNC(=N)N)[C@H]12 [Example 73, (4R,5S,6S)-3-[(2-Cyanoethyl)thio]-4-(2"-guanidinoethyl)-6-[(1'R)-1'-hydroxyethyl]-7-oxo-1-azabicyclo[3.2.0]-hept-2-ene-2-carboxylic acid] |  |  | 
14 | 150 h | 0.016 µg/mL (≈ 0.043 µM) | 4 µg/mL (≈ 10.7 µM) | 0.5 µg/mL (≈ 1.34 µM) | C[C@@H](O)[C@H]1C(=O)N2C(C(=O)O)=C(SCCO)[C@H](CCCCN(C)C)[C@H]12 [Example 91, (4R,5S,6S)-4-(4"-N,N-Dimethylaminobutyl)-6-[(1'R)-1'-hydroxyethyl]-3-[(2-hydroxyethyl)thio]-7-oxo-1-azabicyclo-[3.2.0]hept-2-ene-2-carboxylic acid] |  |  | 
15 | 247 h | 0.06 µg/mL (≈ 0.191 µM) | 2 µg/mL (≈ 6.36 µM) | 2 µg/mL (≈ 6.36 µM) | CSC1=C(C(=O)O)N2C(=O)[C@H]([C@@H](C)O)[C@H]2[C@H]1CCCCN [Example 92, (4R,5S,6S)-4-(4"-Aminobutyl)-6-(1'R)-1'-hydroxyethyl-3-methylthio-7-oxo-1-azabicyclo[3.2.0]hept-2-ene-2-carboxylic acid] |  |  | 
16 | 88 h | 0.008 µg/mL (≈ 0.0196 µM) | 8 µg/mL (≈ 19.6 µM) | 0.06 µg/mL (≈ 0.147 µM) | C[C@@H](O)[C@H]1C(=O)N2C(C(=O)O)=C(SCc3cn(C)nn3)[C@H](CCCNC=N)[C@H]12 [Example 94, (4R.5S,6S)-4-[3"-(N-Formimidoyi)aminopropyi]-6-[(1'R)-1'-hydroxyethyl]-3-[(1-methyl-1,2,3-triazol-4-yl)-methylthio]-7-oxo-1-azabicyclo[3.2.0]hept-ene-2-carboxylic acid] |  |  | 
17 |  | 0.125 µg/mL (≈ 0.315 µM) | 8 µg/mL (≈ 20.2 µM) | 0.125 µg/mL (≈ 0.315 µM) | C[C@H](N)C(=O)NCC[C@H]1C(SCCC#N)=C(C(=O)O)N2C(=O)[C@H]([C@@H](C)O)[C@@H]12 [Example 145, (4R,5S,6S)-6-[(\1'R)-1'-Hydroxyethyl]-3-[(2-cyanoethyl)-thio]-4-[2"-(L-alanyl)-aminoethyl]-7-oxo-1-azabicyclo-[3.2.0]hept-2-ene-2-carboxylic acid] |  |  | 
18 |  | 0.125 µg/mL (≈ 0.267 µM) | 128 µg/mL (≈ 274 µM) | 0.25 µg/mL (≈ 0.535 µM) | C[C@H](N)C(=O)N[C@@H](C)C(=O)NCC[C@H]1C(SCCC#N)=C(C(=O)O)N2C(=O)[C@H]([C@@H](C)O)[C@@H]12 [Example 146, (4R,5S,6S)-6-[(1'R)-1'-Hydroxyethyl]-3-[(2-cyanoethyl)-thio]-4-[2"-(L-alanyl-L-alanyl)-aminoethyl]-7-oxo-1-azabicyclo-[3.2.0]hept-2-ene-2-carboxylic acid] |  |  | 
